Laboratory results taken from patent publication US11578084B2, “Condensed ring compounds having dopamine D3 receptor antagonistic effect” (Shionogi & Co., Ltd., priority 2018, dated 2023).
Like-named read-outs stand apart in the source and are kept apart here.

Key:
[1] = target: human recombinant dopamine D3 receptor (Homo sapiens (Human), UniProt P35462); test: Test of binding inhibition for dopamine D3 receptor ([3H]-Methylspiperone SPA); settings: Jump-In HEK cell membranes, 2 nM [3H]-Methylspiperone, 120 min at 25° C.; read-out: hD3_Ki
Chain of human recombinant dopamine D3 receptor (P35462 whole entry): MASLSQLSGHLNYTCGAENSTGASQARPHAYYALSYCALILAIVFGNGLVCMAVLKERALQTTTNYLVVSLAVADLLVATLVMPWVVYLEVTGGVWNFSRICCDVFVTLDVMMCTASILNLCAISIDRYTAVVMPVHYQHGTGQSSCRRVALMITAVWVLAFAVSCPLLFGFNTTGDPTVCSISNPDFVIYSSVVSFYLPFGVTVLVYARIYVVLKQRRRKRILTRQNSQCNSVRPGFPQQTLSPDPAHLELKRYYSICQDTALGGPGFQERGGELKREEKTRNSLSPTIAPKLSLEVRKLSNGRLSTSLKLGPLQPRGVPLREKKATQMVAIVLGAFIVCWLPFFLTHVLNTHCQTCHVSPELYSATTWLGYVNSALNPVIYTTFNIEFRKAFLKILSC
Procedure: (§1) (Experimental Conditions)
Cell membranes: Jump-In HEK cell membranes expressing human recombinant dopamine D3 receptor (4 μg/well)
(§2) Non-specific ligand: (final concentration) 10 μM Butaclamol [(+)-Butaclamol Hydrochloride, D033, Sigma]
(§3) SPA beads solution: SPA beads [WGA PVT SPA Scintillation Beads, RPNQ0001 (500 mg), RPNQ0060 (2 g), PerkinElmer] (0.2 mg/well)
(§4) Incubation time and temperature: 120 min at 25° C.
(§5) Butaclamol or the compounds of the present invention were weighed and DMSO was added to make a 10 mM solution. This solution was diluted to each concentration.
[^3H]-Methylspiperone was weighed and the buffer solution was added to make a 6 nM solution.
(§6) SPA beads were weighed and stirred in water to make a 50 mg/mL solution. Using this solution, a mixture with the cell membranes was prepared.
(§7) Jump-In HEK Cell membranes (final reaction amount: 4 μg protein/well), the SPA beads solution (final reaction amount: 0.2 mg/well) and the buffer solution were mixed and the mixed solution was left still for 1 hour or more at 4° C. Then, 50 μL of the mixture was added to each well of the plate. In addition, 25 μL of 6 nM [^3H]-Methylspiperone (final concentration: 2 nM) was added to each well. […] Non-specific binding was calculated based on the radioactivity of [^3H]-Methylspiperone in the presence of 10 μM non-labeled Butaclamol. The total binding was calculated using the radioactivity of [H]-Methylspiperone in the absence of the compounds of the present invention (vehicle). The Ki values were calculated from dose-response curves.
(§8) Binding activities of the compounds of the present invention were calculated from the following Binding Inhibition Rate (%): Inhibition Rate (%)=[1−(c−a)/(b−a)]×100 • a: Average cpm of non-specific binding • b: Average cpm of total binding • c: Cpm in the presence of each test compound

[2] = target: human recombinant dopamine D2 receptor (Homo sapiens (Human), UniProt P14416); test: Test of binding inhibition for dopamine D2 receptor ([3H]-Methylspiperone SPA); settings: Jump-In HEK cell membranes, read-out: hD2_Ki
Chain of human recombinant dopamine D2 receptor (P14416 whole entry): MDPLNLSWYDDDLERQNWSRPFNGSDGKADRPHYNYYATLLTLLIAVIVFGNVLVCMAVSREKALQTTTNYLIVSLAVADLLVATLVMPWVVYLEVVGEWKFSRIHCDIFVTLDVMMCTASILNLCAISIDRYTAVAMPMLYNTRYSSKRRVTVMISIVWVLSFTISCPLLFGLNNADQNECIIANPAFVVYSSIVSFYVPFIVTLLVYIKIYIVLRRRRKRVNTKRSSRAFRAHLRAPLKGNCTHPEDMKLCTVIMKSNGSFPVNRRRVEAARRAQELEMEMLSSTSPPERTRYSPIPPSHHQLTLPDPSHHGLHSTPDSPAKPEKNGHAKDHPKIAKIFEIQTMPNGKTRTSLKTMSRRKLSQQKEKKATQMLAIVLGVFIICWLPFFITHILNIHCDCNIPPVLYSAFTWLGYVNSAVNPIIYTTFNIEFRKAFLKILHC
Procedure: as §1
Cell membranes: Jump-In HEK cell membranes expressing human recombinant dopamine D2 receptor (2 μg/well)
as §2, §3, §4, §5, §6
as §7, with “amount: 2” for “amount: 4”, “were mixed,” for “were mixed”, “plate.” for “plate. In addition, 25 μL of 6 nM [^3H]-Methylspiperone (final concentration: 2 nM) was added to each well.”, “of [^3H]-Methylspiperone” for “of [H]-Methylspiperone”, “invention (Vehicle).” for “invention (vehicle).”
as §8

[3] = 1.2 nM [3H]-Methylspiperone, 120 min at 25° C.

SMILES | Ki [1] [nM] | Ki [2, 3] [nM] | Ki ([2]; [3H]-Methylspiperone 1.2 nM) [nM]
C[C@H](Oc1nc2c(s1)CCN(CC[C@H]1CC[C@H](NC(=O)c3cccc(=O)n3C)CC1)CC2)C(F)(F)F [III-5] | 0.23 | 1000 | 
Cc1ncc(/C=C/C(=O)NC23CCC(CCN4CCc5nc(OCC(F)(F)F)sc5CC4)(CC2)CC3)cn1 [II-15] | 0.16 |  | 240
Cc1ncc(/C=C/C(=O)N[C@H]2CC[C@H](CCN3CCc4ccc(CCC(F)(F)F)nc4CC3)CC2)cn1 [I′-20] | 0.38 |  | 260
Cn1ncc(CC(=O)N[C@H]2CC[C@H](CCN3CCc4ccc(OCC(C)(F)F)nc4CC3)CC2)n1 [I′-42] | 0.016 |  | 500
Cc1ncc(CC(=O)NC23CCC(CCN4CCc5nc(OCC(F)(F)F)sc5CC4)(CC2)CC3)cn1 [II-6] | 0.35 |  | 1200
Cc1nnc(CC(=O)N[C@H]2CC[C@](F)(CCN3CCc4nc(OCC(F)(F)C(F)F)sc4CC3)CC2)o1 [III-8] | 0.16 | 480 | 
Cc1nnc(CC(=O)N[C@H]2CC[C@](F)(CCN3CCc4ccc(CCC(F)(F)F)nc4CC3)CC2)s1 [III-1] | 0.14 | > 2300 | 
Cn1nnc2cccc(C(=O)N[C@H]3CC[C@H](CCN4CCc5nc(OCC(C)(F)F)sc5CC4)CC3)c21 [Example I-054] | 0.13 | 270 | 
Cc1ncc(OCC(=O)N[C@H]2CC[C@H](CCN3CCc4nc(OCC(F)F)sc4CC3)CC2)cn1 [I′-54] | 0.32 |  | 1600
Cn1cc(CC(=O)N[C@H]2CC[C@H](CCN3CCc4ccc(OCC(F)F)nc4CC3)CC2)cn1 [Example I-095] | 0.18 | 1400 | 
Cc1ncc(/C=C/C(=O)N[C@H]2CC[C@H](CCN3CCc4ccc(OCC(F)F)nc4CC3)CC2)cn1 [Example I-098] | 0.17 | 350 | 
Cc1ncc(CC(=O)N[C@H]2CC[C@H](CCN3CCc4nc(OCC(C)(F)F)sc4CC3)OC2)s1 [Example I-064] | 0.3 | 950 | 
Cn1cc2c(C(=O)N[C@H]3CC[C@H](CCN4CCc5ccc(OC6CCC6)nc5CC4)CC3)cccc2n1 [Example I-089] | 0.22 | > 2200 | 
Cc1ncc(/C=C/C(=O)N[C@H]2CC[C@](F)(CCN3CCc4nc(OCCC(F)(F)F)sc4CC3)CC2)cn1 [Example I-116] | 1 | > 2200 | 
C[C@@H](Oc1ccc2c(n1)CCN(CC[C@]1(F)CC[C@@H](NC(=O)Cc3cnn(C)n3)CC1)CC2)C(F)(F)F [Example I-174] | 0.33 | 370 | 
Cn1ncc(CC(=O)N[C@H]2CC[C@H](CCN3CCc4nc(OCC(C)(F)F)sc4CC3)CC2)c1F [I′-26] | 0.17 |  | 870
Cn1ncc(CC(=O)N[C@H]2CC[C@](F)(CCN3CCc4nc(OCC(F)(F)F)sc4CC3)CC2)c1F [I′-23] | 0.28 |  | > 2200
Cc1cnc(OCC(=O)N[C@H]2CC[C@](F)(CCN3CCc4nc(OCC(F)(F)F)sc4CC3)CC2)cn1 [I′-52] | 0.17 |  | > 2200
CC(F)(F)COc1nc2c(s1)CCN(CC[C@H]1CC[C@H](NC(=O)c3cccnc3C(F)F)CC1)CC2 [Example I-163] | 0.31 | 430 | 
CN1Cc2c(C(=O)N[C@H]3CC[C@](F)(CCN4CCc5nc(OCC(F)F)sc5CC4)CC3)cccc2C1=O [Example I-072] | 0.13 | > 1700 | 
Cc1cnc(OCC(=O)N[C@H]2CC[C@](F)(CCN3CCc4ccc(OCC(F)F)nc4CC3)CC2)cn1 [I′-53] | 0.32 |  | > 2200
C[C@@H](Oc1ccc2c(n1)CCN(CC[C@H]1CC[C@H](NC(=O)COc3cnn(C)c3)CC1)CC2)C(F)(F)F [Example I-133] | 0.15 | 190 | 
Cn1ncc(CC(=O)N[C@H]2CC[C@H](CCN3CCc4nc(OCC(F)(F)F)sc4CC3)CC2)c1F [I′-22] | 0.1 |  | 2000
Cc1ncc(CC(=O)N[C@H]2CC[C@H](CCN3CCc4ccc(O[C@H](C)C(F)(F)F)nc4CC3)CC2)cn1 [Example I-131] | 0.35 | 410 | 
Cc1nnc(CC(=O)NC23CCC(CCN4CCc5nc(OCC(F)(F)F)sc5CC4)(CC2)CC3)o1 [II-5] | 0.2 |  | 1300

SMILES | Ki [1] [nM] | Ki [2, 3] [nM] | Ki ([2]; [3H]-Methylspiperone 1.2 nM) [nM]
Cn1cc(CC(=O)N[C@H]2CC[C@H](CCN3CCc4ccc(OCC(F)F)nc4CC3)CC2)c(F)n1 [I′-32] | 0.16 |  | 1200
Cc1c(F)cccc1C(=O)N[C@H]1CC[C@H](CCN2CCc3nc(OCC(C)(F)F)sc3CC2)OC1 [Example I-065] | 0.26 | 340 | 
COc1cc(CC(=O)N[C@H]2CC[C@H](CCN3CCc4ccc(CCC(F)(F)F)nc4CC3)CC2)on1 [I′-2] | 0.21 |  | > 2300
O=C(NC12CCC(CCN3CCc4nc(OCC(F)(F)F)sc4CC3)(CC1)CC2)c1cccnc1C(F)F [II-3] | 0.29 |  | 1400
Cn1ncc(CC(=O)N[C@H]2CC[C@H](CCN3CCc4nc(OCC(F)F)sc4CC3)CC2)n1 [I′-40] | 0.19 |  | 1900
CN1Cc2c(C(=O)NC34CCC(CCN5CCc6nc(OCC(F)F)sc6CC5)(CC3)CC4)cccc2C1=O [II-10] | 0.5 |  | > 2300
Cn1ncc(CC(=O)N[C@H]2CC[C@](F)(CCN3CCc4ccc(CCC(F)(F)F)nc4CC3)CC2)n1 [Example I-144] | 0.32 | 1500 | 
Cc1cnc(CC(=O)N[C@H]2CC[C@](F)(CCN3CCc4ccc(OCC(F)F)nc4CC3)CC2)o1 [Example I-086] | 0.52 | > 2200 | 
Cn1c(C(=O)NC23CCC(CCN4CCc5nc(OCC(F)(F)F)sc5CC4)(CC2)CC3)cccc1=O [II-1] | 0.17 |  | 830
Cc1ncc(CC(=O)N[C@H]2CC[C@H](CCN3CCc4ccc(CCC(F)(F)F)nc4CC3)CC2)cn1 [I′-16] | 0.36 |  | 1800
Cn1cc(CC(=O)N[C@H]2CC[C@H](CCN3CCc4nc(OCC(C)(F)F)sc4CC3)CC2)c(F)n1 [I′-27] | 0.09 |  | > 2200
Cc1nc(CC(=O)N[C@H]2CC[C@H](CCN3CCc4ccc(CCC(F)(F)F)nc4CC3)CC2)no1 [I′-11] | 0.18 |  | 1200
Cn1cc(CC(=O)N[C@H]2CC[C@H](CCN3CCc4ccc(CCC(F)(F)F)nc4CC3)CC2)c(F)n1 [I′-18] | 0.38 |  | 1000
Cc1cc(CC(=O)N[C@H]2CC[C@H](CCN3CCc4ccc(CCC(F)(F)F)nc4CC3)CC2)no1 [I′-21] | 1 |  | > 2300
Cn1cc2c(C(=O)N[C@H]3CC[C@H](CCN4CCc5ccc(CCC(F)(F)F)nc5CC4)CC3)ccc(F)c2n1 [I′-9] | 0.11 |  | 530
O=C(N[C@H]1CC[C@](F)(CCN2CCc3nc(OCC(F)(F)F)sc3CC2)CC1)c1cccnc1C(F)F [Example I-159] | 0.36 | 580 | 
COc1cc(CC(=O)N[C@H]2CC[C@](F)(CCN3CCc4ccc(OCC(F)F)nc4CC3)CC2)on1 [Example I-085] | 0.044 | > 2200 | 
Cc1ncc(CC(=O)N[C@H]2CC[C@H](CCN3CCc4ccc(CCC(F)(F)F)nc4CC3)CC2)o1 [I′-10] | 0.23 |  | 1100
Cn1ncc(CC(=O)N[C@H]2CC[C@H](CCN3CCc4nc(OCC(F)(F)F)sc4CC3)CC2)n1 [I′-36] | 0.071 |  | 740
Cn1cc(CC(=O)N[C@H]2CC[C@](F)(CCN3CCc4nc(OCC(F)F)sc4CC3)CC2)c(F)n1 [I′-31] | 0.57 |  | 1300
CC(C)Oc1ccc2c(n1)CCN(CC[C@H]1CC[C@H](NC(=O)c3cccc4c(=O)n(C)ccc34)CC1)CC2 [Example I-063] | 0.62 | 1700 | 
Cc1nc(CC(=O)N[C@H]2CC[C@H](CCN3CCc4ccc(CCC(F)(F)F)nc4CC3)CC2)nn1C [I′-14] | 0.21 |  | > 2300
Cn1cc(CC(=O)N[C@H]2CC[C@H](CCN3CCc4nc(OCC(F)F)sc4CC3)CC2)c(F)n1 [I′-30] | 0.19 |  | 1600
Cc1nnc(CC(=O)N[C@H]2CC[C@](F)(CCN3CCc4nc(O[C@H](C)C(F)(F)F)sc4CC3)CC2)s1 [Example I-126] | 0.92 | > 2300 | 
Cn1cc(OCC(=O)N[C@H]2CC[C@H](CCN3CCc4ccc(CCC(F)(F)F)nc4CC3)CC2)cn1 [I′-6] | 0.33 |  | 
